Patent US9492471B2, “Methods of treating a disease or disorder associated with Bruton'S Tyrosine Kinase” (Celgene Avilomics Research, Inc., priority 2013, dated 2016)
Read-outs that look alike come from different tables or passages of the source.

What was measured:
Experiment in all cases: HotSpot kinase profiling
Format in all cases: biochemical
CAMK2d = biological target: T1, CAMK2d (Homo sapiens, UniProt Q13557)
T1 construct: purchased Reaction Biology Corp
In short: (§1)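 Activity is measured by radiolabel transfer captured on P81 filters after a 2 h room-temperature reaction of kinase, substrate and cofactors. Values are percent inhibition against DMSO.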

CDK5/p25 = biological target: T2, CDK5/p25 (Homo sapiens, UniProt Q00535)
T2 construct: purchased Reaction Biology Corp
In short: as §1

FGFR3 = biological target: T3, FGFR3 (Homo sapiens, UniProt P22607)
T3 construct: purchased Reaction Biology Corp
T3 sequence (P22607 23-806): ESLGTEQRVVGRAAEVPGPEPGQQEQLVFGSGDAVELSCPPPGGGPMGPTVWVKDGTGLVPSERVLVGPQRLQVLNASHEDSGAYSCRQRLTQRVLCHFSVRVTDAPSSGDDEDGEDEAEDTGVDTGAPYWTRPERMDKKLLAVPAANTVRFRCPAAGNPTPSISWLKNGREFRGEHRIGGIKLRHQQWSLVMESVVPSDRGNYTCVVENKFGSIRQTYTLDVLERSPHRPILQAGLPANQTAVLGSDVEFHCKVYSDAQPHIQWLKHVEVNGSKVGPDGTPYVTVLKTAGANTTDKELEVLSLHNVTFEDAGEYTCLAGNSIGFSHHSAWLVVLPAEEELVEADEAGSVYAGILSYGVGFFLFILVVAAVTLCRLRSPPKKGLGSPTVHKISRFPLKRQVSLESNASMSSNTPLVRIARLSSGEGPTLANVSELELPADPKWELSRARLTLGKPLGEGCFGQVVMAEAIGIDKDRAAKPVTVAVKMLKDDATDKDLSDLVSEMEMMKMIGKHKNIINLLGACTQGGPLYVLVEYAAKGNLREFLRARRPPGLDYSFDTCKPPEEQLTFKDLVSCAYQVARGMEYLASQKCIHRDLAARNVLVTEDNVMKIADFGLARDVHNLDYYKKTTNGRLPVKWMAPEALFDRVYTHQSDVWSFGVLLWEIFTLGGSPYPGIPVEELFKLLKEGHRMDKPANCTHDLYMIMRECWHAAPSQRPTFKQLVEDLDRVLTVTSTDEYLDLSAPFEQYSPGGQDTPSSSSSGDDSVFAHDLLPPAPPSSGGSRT
In short: as §1

GCK/MAP4K2 = biological target: T4, GCK/MAP4K2 (Homo sapiens, UniProt Q12851)
T4 construct: purchased Reaction Biology Corp
T4 sequence (Q12851 1-820): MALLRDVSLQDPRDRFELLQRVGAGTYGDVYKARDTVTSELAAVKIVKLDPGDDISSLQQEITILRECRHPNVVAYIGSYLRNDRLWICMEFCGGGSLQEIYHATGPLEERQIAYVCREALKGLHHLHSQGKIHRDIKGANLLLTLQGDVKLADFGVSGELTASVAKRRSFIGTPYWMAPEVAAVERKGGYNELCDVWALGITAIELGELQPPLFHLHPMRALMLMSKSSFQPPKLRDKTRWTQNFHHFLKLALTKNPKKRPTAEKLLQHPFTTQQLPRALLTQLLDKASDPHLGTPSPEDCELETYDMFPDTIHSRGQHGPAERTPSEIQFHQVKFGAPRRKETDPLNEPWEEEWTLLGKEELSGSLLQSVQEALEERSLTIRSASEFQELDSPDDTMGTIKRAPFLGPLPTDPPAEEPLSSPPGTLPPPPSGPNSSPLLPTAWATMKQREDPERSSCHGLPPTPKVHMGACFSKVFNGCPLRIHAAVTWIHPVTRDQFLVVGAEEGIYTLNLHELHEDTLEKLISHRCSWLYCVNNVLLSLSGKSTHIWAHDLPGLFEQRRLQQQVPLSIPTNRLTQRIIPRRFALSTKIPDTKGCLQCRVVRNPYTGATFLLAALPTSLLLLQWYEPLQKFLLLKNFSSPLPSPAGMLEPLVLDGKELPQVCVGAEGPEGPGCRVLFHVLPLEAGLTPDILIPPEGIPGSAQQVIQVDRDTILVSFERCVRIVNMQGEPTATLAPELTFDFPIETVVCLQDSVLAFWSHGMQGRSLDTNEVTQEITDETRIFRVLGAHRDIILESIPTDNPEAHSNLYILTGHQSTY
In short: as §1

HCK = biological target: T5, HCK (Homo sapiens, UniProt P08631)
T5 construct: purchased Reaction Biology Corp
T5 sequence (P08631 whole entry): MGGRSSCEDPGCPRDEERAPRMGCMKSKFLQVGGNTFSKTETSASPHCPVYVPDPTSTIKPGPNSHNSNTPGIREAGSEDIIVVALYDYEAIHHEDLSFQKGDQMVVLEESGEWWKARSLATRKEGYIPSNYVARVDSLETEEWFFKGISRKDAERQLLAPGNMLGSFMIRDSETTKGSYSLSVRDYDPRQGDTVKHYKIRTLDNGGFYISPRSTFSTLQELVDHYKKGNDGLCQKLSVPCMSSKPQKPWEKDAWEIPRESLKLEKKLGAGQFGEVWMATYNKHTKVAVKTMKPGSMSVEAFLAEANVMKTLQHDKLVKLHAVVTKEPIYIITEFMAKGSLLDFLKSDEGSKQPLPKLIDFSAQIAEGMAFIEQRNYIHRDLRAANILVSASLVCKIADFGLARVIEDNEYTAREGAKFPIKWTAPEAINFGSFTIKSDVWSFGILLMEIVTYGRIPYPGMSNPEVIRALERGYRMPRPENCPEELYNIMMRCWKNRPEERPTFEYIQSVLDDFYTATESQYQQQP
In short: as §1

LIMK1 = biological target: T6, LIMK1 (Homo sapiens, UniProt P53667)
T6 construct: purchased Reaction Biology Corp
T6 sequence (P53667 whole entry): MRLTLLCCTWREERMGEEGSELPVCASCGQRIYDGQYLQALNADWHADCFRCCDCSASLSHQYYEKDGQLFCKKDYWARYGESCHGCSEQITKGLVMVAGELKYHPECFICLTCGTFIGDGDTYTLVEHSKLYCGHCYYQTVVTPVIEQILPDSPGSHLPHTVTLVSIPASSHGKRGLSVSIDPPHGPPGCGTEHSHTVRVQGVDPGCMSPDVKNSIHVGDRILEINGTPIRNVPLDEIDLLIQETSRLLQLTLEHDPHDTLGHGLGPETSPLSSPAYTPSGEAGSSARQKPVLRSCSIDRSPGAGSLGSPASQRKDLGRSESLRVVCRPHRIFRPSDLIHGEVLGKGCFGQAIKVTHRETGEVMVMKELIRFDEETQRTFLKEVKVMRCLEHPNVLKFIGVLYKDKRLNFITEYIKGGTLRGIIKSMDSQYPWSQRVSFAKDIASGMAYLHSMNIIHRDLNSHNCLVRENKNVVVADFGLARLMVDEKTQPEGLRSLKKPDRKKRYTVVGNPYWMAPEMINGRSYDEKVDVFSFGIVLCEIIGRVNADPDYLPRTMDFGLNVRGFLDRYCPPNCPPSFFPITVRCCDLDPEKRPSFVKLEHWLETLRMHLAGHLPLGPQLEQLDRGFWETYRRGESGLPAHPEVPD
In short: as §1

LRRK2 = biological target: T7, LRRK2 (Homo sapiens, UniProt Q5S007)
T7 construct: purchased Reaction Biology Corp
In short: as §1

MLCK/MYLK = biological target: T8, MLCK/MYLK (Homo sapiens, UniProt Q15746)
T8 construct: purchased Reaction Biology Corp
In short: as §1

MRCKb/CDC42BPB = biological target: T9, MRCKb/CDC42BPB (Homo sapiens, UniProt Q9Y5S2)
T9 construct: purchased Reaction Biology Corp
T9 sequence (Q9Y5S2 whole entry): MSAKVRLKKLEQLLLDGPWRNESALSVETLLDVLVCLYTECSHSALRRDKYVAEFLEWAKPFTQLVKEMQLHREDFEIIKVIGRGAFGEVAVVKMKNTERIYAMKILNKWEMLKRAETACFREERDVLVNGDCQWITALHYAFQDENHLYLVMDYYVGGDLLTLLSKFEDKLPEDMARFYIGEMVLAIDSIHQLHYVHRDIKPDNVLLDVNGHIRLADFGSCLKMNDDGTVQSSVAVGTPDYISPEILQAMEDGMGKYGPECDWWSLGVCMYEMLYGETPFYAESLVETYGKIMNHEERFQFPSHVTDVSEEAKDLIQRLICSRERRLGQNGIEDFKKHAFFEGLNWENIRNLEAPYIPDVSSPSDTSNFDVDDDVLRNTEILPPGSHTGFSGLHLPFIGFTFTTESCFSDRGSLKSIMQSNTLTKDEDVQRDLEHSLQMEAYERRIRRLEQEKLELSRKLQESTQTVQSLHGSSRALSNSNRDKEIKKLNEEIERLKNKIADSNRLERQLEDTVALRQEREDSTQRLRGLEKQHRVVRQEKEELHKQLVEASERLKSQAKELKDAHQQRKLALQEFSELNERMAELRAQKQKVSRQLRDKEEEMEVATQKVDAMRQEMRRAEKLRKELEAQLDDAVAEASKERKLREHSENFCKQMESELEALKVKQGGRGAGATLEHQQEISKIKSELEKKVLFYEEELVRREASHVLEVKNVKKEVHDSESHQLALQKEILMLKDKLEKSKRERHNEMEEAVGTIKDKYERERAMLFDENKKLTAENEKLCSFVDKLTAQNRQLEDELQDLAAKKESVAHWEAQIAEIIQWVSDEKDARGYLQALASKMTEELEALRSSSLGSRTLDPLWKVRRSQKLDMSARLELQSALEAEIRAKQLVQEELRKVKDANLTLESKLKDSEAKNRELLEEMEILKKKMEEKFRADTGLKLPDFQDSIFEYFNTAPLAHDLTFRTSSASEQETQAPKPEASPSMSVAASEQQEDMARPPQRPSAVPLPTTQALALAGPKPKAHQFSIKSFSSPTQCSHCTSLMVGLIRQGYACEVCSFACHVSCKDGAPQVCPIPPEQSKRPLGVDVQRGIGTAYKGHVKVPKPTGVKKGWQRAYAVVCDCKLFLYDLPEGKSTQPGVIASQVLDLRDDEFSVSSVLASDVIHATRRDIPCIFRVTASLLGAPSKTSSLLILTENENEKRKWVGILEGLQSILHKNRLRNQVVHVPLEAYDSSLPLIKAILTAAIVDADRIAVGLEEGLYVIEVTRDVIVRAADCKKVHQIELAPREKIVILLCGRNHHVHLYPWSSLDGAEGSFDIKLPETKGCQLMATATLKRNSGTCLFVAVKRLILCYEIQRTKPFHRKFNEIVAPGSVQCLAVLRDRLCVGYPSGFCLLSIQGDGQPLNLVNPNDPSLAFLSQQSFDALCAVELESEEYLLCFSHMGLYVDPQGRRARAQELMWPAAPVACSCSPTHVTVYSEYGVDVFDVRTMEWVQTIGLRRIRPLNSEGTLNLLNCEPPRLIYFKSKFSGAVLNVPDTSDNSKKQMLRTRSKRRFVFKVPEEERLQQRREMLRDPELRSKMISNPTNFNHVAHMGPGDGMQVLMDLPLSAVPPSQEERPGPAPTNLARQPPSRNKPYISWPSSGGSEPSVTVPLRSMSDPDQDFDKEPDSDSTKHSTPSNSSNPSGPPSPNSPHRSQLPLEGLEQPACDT
In short: as §1

MSK1/RPS6KA5 = biological target: T10, MSK1/RPS6KA5 (Homo sapiens, UniProt O75582)
T10 construct: purchased Reaction Biology Corp
In short: as §1

MST4 = biological target: T11, MST4 (Homo sapiens, UniProt Q9P289)
T11 construct: purchased Reaction Biology Corp
T11 sequence (Q9P289 whole entry): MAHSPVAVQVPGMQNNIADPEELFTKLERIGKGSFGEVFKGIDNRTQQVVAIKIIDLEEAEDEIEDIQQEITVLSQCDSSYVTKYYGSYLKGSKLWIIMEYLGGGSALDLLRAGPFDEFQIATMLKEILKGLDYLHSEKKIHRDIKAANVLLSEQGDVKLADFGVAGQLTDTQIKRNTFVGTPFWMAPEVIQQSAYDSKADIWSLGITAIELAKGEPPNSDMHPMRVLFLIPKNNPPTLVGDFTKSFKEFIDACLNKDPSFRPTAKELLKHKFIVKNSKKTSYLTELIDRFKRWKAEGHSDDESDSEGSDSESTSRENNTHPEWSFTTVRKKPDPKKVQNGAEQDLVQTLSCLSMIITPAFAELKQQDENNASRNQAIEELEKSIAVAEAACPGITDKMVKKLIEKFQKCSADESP
In short: as §1

[1] = read-out: % Enzyme Activity (relative to DMSO controls) Run 1
[2] = read-out: % Enzyme Activity (relative to DMSO controls) Run 2

T1 sequence (Q13557 whole entry): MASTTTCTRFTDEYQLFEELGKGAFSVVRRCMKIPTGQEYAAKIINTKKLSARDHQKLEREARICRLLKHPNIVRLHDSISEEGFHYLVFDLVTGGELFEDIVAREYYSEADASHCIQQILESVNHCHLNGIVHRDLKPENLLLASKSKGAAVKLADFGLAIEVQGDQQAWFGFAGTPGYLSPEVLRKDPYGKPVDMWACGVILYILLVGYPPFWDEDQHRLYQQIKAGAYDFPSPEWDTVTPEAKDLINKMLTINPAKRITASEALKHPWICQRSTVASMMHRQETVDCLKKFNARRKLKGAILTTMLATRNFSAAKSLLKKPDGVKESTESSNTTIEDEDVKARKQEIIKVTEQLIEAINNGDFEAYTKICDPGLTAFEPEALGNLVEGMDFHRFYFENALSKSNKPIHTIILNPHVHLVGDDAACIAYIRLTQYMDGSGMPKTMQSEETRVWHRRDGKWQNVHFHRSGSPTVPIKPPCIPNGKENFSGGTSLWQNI

What does the source list for C=CC(=O)Nc1cccc(Nc2nc(Nc3ccc(OCCOC)c(F)c3)ncc2F)c1 [Compound 2]?
inhibition at 3 µM (CAMK2d): -23.3%; remaining activity at 3 µM (CAMK2d; [1]): 124%; remaining activity at 3 µM (CAMK2d; [2]): 123%; inhibition at 3 µM (CDK5/p25): 9.1%; remaining activity at 3 µM (CDK5/p25; [1]): 89.5%; remaining activity at 3 µM (CDK5/p25; [2]): 92.3%; inhibition at 3 µM (FGFR3): 68%; remaining activity at 3 µM (FGFR3; [1]): 32.1%; remaining activity at 3 µM (FGFR3; [2]): 31.8%; inhibition at 3 µM (GCK/MAP4K2): -0.14%; remaining activity at 3 µM (GCK/MAP4K2; [1]): 100%; remaining activity at 3 µM (GCK/MAP4K2; [2]): 100%; inhibition at 3 µM (HCK): 29.5%; remaining activity at 3 µM (HCK; [1]): 72%; remaining activity at 3 µM (HCK; [2]): 69%; inhibition at 3 µM (LIMK1): 38.8%; remaining activity at 3 µM (LIMK1; [1]): 61%; remaining activity at 3 µM (LIMK1; [2]): 61.4%; inhibition at 3 µM (LRRK2): 65.9%; remaining activity at 3 µM (LRRK2; [1]): 33%; remaining activity at 3 µM (LRRK2; [2]): 35.1%; inhibition at 3 µM (MLCK/MYLK): 4.59%; remaining activity at 3 µM (MLCK/MYLK; [1]): 95.6%; remaining activity at 3 µM (MLCK/MYLK; [2]): 95.2%; inhibition at 3 µM (MRCKb/CDC42BPB): -6.12%; remaining activity at 3 µM (MRCKb/CDC42BPB; [1]): 107%; remaining activity at 3 µM (MRCKb/CDC42BPB; [2]): 105%; inhibition at 3 µM (MSK1/RPS6KA5): 2.7%; remaining activity at 3 µM (MSK1/RPS6KA5; [1]): 94.9%; remaining activity at 3 µM (MSK1/RPS6KA5; [2]): 99.7%; inhibition at 3 µM (MST4): -1.09%; remaining activity at 3 µM (MST4; [1]): 97.8%; remaining activity at 3 µM (MST4; [2]): 104%
